Results: patent US6699494B2, “Pharmaceutical composition and method for treating premature labor” (Columbia Laboratories, Inc., priority 1997, dated 2004)
Where two headings read alike, the source gives them in different places.

Key:
[1] = terbutaline inhaler, dysmenorrhea; cited from earlier work
[2] = cited from earlier work
[3] = oral administration, cited from earlier work
[4] = Side effects at the 0.8% dose in the single and multiple dose studies; assay type: in vivo, human; conditions: transvaginal gel
Text: (§1) Both the single and multiple dose studies discussed in the preceding examples also evaluated the 0.8% w/w concentration. The average age±SD for the single and multiple dose studies at the 0.8 dose were 26±3.42 and 26±4.12, respectively. The pharmacokinetic parameters from the study follow in Tables 4 and 5.
A number of patients in the study (40%), however, experienced side effects such as tachycardia at this dose. […] This dose can be a method of practicing the invention, but is certainly not the most preferred embodiment.

[5] = Single dose pharmacokinetic study of transvaginal terbutaline gel, serum terbutaline by GC-MS; assay type: in vivo, human
Experimental: The objective of this study was to assess the pharmacokinetic parameters of the terbutaline and polycarbophil composition following a single dose regimen comparing progressively increasing concentrations. This open-label study was conducted in ten healthy female volunteers with a mean age of 25±SD (Standard Deviation) of 3.93 years. This study consisted of a 30 day screening period and a 24 hour treatment period with a follow-up evaluation conducted two days after administration of the final dose. The drug was administered transvaginally at 9:00 a.m. A wash out period of at least one week as observed between each of the four doses of the drug. All subjects were given an estro-progestative pill, to ensure that all study participants were at the same point in their menstrual cycle. They began dosing on day 7 to 10 of their pill intake for the single dose study. Serum terbutaline concentrations were obtained from blood samples collected predosing on the mornings of treatment, at frequent intervals during the initial 24 hours post dose (0.5, 1, 1.5, 2, 4, 6, 8, 12, 24 hours) and at 48 hours post dose. Serum terbutaline concentrations were determined using gas chromatography-mass spectrometry. Pharmacokinetic parameters were computed using concentration-time data for each subject following intake of the last dose of investigational drug on the morning of study day 6. The following pharmacokinetic parameters were computed: area under the drug concentration-time curve from time 0 to time t (AUC0-t), where t is the time of the last measurable concentration; peak drug concentration (Cmax); time to peak drug concentration (tmax); steady state drug concentration (CSS); and, elimination half-life (t½).
All ten subjects completed the study for the 0.1%, 0.2%, and 0.4% (w/w) concentrations. For each dose, the onset of serum terbutaline concentrations occurred within 1 to 2 hours. (See FIG. 1 and Table 2 showing terbutaline concentrations for each tested dose). […] Concentrations were still detectable for up to 48 hours (mean±SEM (Standard Error of the Mean) of 113.11±32.25 pg/mL for the 0.4% concentration).
as §1

[6] = Human ex vivo uterine perfusion model, vagina to uterus transfer of tritiated terbutaline; assay type: in vitro ADME
Experimental: This model verifies the preferential direct delivery of terbutaline from the vagina to the uterus. In this study, uteri obtained from women undergoing hysterectomies for benign diseases were immediately connected to an organ perfusion system in which temperature, CO2 concentration, uterine artery pressure and flow were maintained constant. A perfusion model was opened without recirculation. The direct transfer of terbutaline from the vagina to the uterus was analyzed by applying a mixture of tritiated [^3H] terbutaline and unlabeled terbutaline to the cuff of vaginal tissue remaining attached to the cervix after the hysterectomy. Tritiated terbutaline was only used for autoradiography analysis of sections of uterine tissue. The experiments were interrupted at predetermined time intervals after vaginal applications […]. At the end of the perfusion period, ^3H and ^14C radioactivity was measured in endometrial and myometrial samples. Tritiated water and ^14C dextran helped to determine that the extend of non-specific vagina to uterus transport (due to leaks of the system) was less than 10%. The myometrial extraction of terbutaline and its corresponding venous outflow during the 12 hour uterine perfusions are shown in FIG. 3 below. The ^3H terbutaline started to be recovered in the venous effluent uterine during the first 3 hours. Terbutaline flow was maximal at the 6th-9th hour and then decreased for up to 48 hours of perfusion. Terbutaline flow in the venous effluent uterine is the reflection of terbutaline exiting from the organ. Accumulation of tritiated terbutaline was maximal in the myometrium at 12 hours of perfusion. (Mean±SD of 18.40±3.40 ng/100 mg of tissue) and decreased slowly. Significant accumulation of ^3H terbutaline still remained at 48 hours of perfusion, with 20% of the original concentration present.

[7] = female, human, 0.1 % (w/w), 0.1% gel, serum, mean ± SEM, n=10
[8] = female, human, 0.2 % (w/w), 0.2% gel, serum, mean ± SEM, n=10
[9] = female, human, 0.4 % (w/w), 0.4% gel, serum, mean ± SEM, n=10
[10] = female, human, 0.8 % w/w, 0.8% gel, serum, mean ± SEM, n=8
[11] = ex vivo perfused uterus, vaginal application

For `CC(C)(C)NCC(O)c1cc(O)cc(O)c1` (stereo not shown) [Terbutaline, 5-[2-[(1,1-dimethylethyl)amino]-1-hydroxyethyl]-1,3-benzenediol], the “duration of the effect of each spray” value [1] is given as at least 1 h, the “known serum levels for toxicity” value ([2]; prior art) is given as 3000 pg/mL and the “known serum threshold susceptible to trigger systemic adverse events such as tachycardia and tremor” value ([2]; reported in prior art) is given as 3,000-3,500 pg/mL. For the same compound, the Bioavailability ([3]; extensive first-pass sulphation) was 15 and 20%, the “further decrease of bioavailability by concomitant food intake” value [3] was 30% and the “patients who experienced side effects such as tachycardia” value [4] was 40%. The “time for which serum concentrations were still detectable” value [5] was “up to 48 hours”, the Css ([5]; 0.1% gel, serum, mean ± SEM, n=10) was 56 ± 41 pg/mL and the Css ([5]; 0.2% gel, serum, mean ± SEM, n=10) was 191 ± 108 pg/mL. The Css ([5]; 0.8% gel, serum, mean ± SEM, n=8) was 579 ± 300 pg/mL, the Cmax [5, 7] was 0.117 ± 0.059 ng/mL and the Tmax [5, 7] was 13 ± 6 h. For the same compound, the AUC(0-t) ([5]; female, human, 0.1 % (w/w), 0.1% gel, serum, mean ± SEM, n=10, read-out: AUC0 to 48) was 2.28 ± 1.84 ng·h/mL, the half-life ([5]; female, human, 0.1 % (w/w), 0.1% gel, serum, mean ± SEM, n=10, read-out: t½ (converted)) was 1080 ± 720 min and the Cmax [5, 8] was 0.297 ± 0.17 ng/mL. For the same compound, the Tmax [5, 8] was 13 ± 6 h, the AUC(0-t) ([5]; female, human, 0.2 % (w/w), 0.2% gel, serum, mean ± SEM, n=10, read-out: AUC0 to 48) was 8.01 ± 4.7 ng·h/mL and the half-life ([5]; female, human, 0.2 % (w/w), 0.2% gel, serum, mean ± SEM, n=10, read-out: t½ (converted)) was 1740 ± 900 min. It also gave a Cmax [5, 9] of 0.479 ± 0.149 ng/mL, a Tmax [5, 9] of 14 ± 7 h and an AUC(0-t) ([5]; female, human, 0.4 % (w/w), 0.4% gel, serum, mean ± SEM, n=10, read-out: AUC0 to 48) of 11.9 ± 5.28 ng·h/mL. The half-life ([5]; female, human, 0.4 % (w/w), 0.4% gel, serum, mean ± SEM, n=10, read-out: t½ (converted)) was 1440 ± 960 min, the AUC(0-t) ([5]; female, human, 0.8 % w/w gel, 0.8% gel, serum, mean ± SEM, n=8, read-out: AUC0 to 48) was 23.2 ± 13.5 ng·h/mL and the Cmax [5, 10] was 0.787 ± 0.434 ng/mL. For the same compound, the Tmax [5, 10] was 10 ± 3 h, the half-life ([5]; female, human, 0.8 % w/w, 0.8% gel, serum, mean ± SEM, n=8, read-out: t½ (converted)) was 1200 ± 420 min and the half-life ([5]; female, human, serum, according to the dose administered (0.1%-0.4%), read-out: Mean t½ estimates) was 1080 to 1740 min. The concentration at 48 h ([5]; female, human, serum, other: transvaginal, 0.4 % (w/w), 0.4% concentration, mean±SEM) was 0.113 ± 0.0323 ng/mL, the “onset of serum terbutaline concentrations” value ([5]; for each dose (0.1%, 0.2%, 0.4%)) was 1 to 2 h and the “time terbutaline lasted in the myometrium” value ([6]; after a single vaginal application) was “over 48 hours”. The “accumulation of tritiated terbutaline in the myometrium” value ([6]; at 12 hours of perfusion, Mean±SD) was 18.40±3.40 ng/100 mg of tissue, the “3H terbutaline remaining, share of the original concentration” value ([6]; at 48 hours of perfusion) was 20% and the “time of maximal accumulation of tritiated terbutaline in the myometrium” value [6, 11] was 12 h. The “time within which 3H terbutaline started to be recovered in the venous effluent” value [6, 11] was at most 3 h.
